Experimental data from patent US20210228500A1, “CELLULAR RETINOID BINDING PROTEIN ANTAGONISTS AND USES THEREOF” (CASE WESTERN RESRVE UNIVERSITY, priority 2018, published 2021).

Legend:
[1] = target: T1, CRBP3 (Homo sapiens, UniProt P82980); assay: Crystal structure of CRBP3 in complex with abn-CBD; format: binding; details: crystal structure PDB No. 6E5W
T1 construct: thrombin cut site (residual residues after digestion) (C); 6x histidine tag (C, cleaved yes); made in house; host or cells: E. coli BL21 (DE3) (as for CRBP2)
T1 sequence (P82980 1-135): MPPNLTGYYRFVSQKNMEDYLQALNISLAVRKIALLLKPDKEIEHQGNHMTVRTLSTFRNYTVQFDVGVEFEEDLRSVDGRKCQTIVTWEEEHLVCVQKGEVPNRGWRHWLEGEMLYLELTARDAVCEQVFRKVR
Method: The cDNA of human CRBP3 was purchased from Origene Technologies. To introduce a thrombin cut site at the C-terminus of the protein, the cDNA was amplified by PCR and subcloned into pET30b vector. The next steps of the expression and purification of CRBP3 were identical to the procedure described above for CRBP2.
Crystals of CRBP1 in complex abn-CBD and its derivatives (abn-CBDO or CBDO) were grown essentially as described by Silvaroli et al (ACS Chem Biol. 2019, 15; 14(3)). The apo protein at 3 mg mL-1 was preincubated with 300 μM of a ligand in 10 mM Tris-HCl buffer, pH 8.0, 150 mM NaCl for 15 min on ice. This sample (1 μL) was mixed in 1:1 ratio with a crystallization solution composed of 0.1 M BisTris, pH 5.5, and 25% poly(ethylene glycol) (PEG) 3350 (w/v). Crystals of CRBP3 with abn-CBD were obtained by preincubating apoprotein at 8 mg mL-1 with 300 μM of the ligand for 15 min and setting up crystallization drops by mixing 1 μL of the protein sample with 1 μL of 0.2 M sodium malonate, pH 5.0 and 20% PEG 3350 (w/v) solution. For CRBP4, the crystallization conditions included 0.2 M NaCl, 0.1 M BisTris, pH 6.5, and 25% PEG 3350 (w/v). Similar to the other CRBPs, CRBP4 (6 mg mL^−1) was preincubated with abn-CBD prior to the crystallization. All of the protein crystals were obtained by the sitting drop vapor diffusion method at RT. […]

[2] = target: T2, RDH5 (Bos taurus, UniProt Q27979); assay: 11-cis-retinol oxidation assay; format: biochemical; details: bovine RPE microsomes preincubated with 10-50 μM
T2 construct: from tissue; host or cells: bovine RPE microsomes
T2 sequence (Q27979 1-318): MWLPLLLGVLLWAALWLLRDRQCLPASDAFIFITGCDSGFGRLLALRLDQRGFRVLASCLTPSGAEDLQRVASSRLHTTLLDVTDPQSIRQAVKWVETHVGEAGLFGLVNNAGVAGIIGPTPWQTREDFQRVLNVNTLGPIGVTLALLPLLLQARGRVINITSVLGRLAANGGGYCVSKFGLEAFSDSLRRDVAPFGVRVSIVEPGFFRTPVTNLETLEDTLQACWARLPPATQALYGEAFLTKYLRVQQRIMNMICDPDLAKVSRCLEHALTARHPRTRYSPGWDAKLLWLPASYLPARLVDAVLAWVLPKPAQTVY
Method: Dehydrogenase activity was assayed by monitoring oxidation of 11-cis-retinol to a corresponding aldehyde in bovine RPE microsomes. The reaction mixture containing 20 mM Tris/HCl buffer, pH 8.0, 1% BSA (w/v), 20 μM NAD+, and RPE microsomes (˜100 μg of total protein) in the total volume of 0.1 mL. 11-cis-Retinol (10 μM) was incubated at 30° C. for 10 min. The reaction was stopped by 0.2 mL of methanol that contained 40 mM hydroxylamine. After subsequent 15 min of incubation at RT, the retinoids were extracted with 0.3 mL of hexane and analyzed by normal-phase HPLC as described for the retinol esterification assay.
Thus, to further probe the biological effect of this compound, we tested its effect on the key enzymes of the visual cycle. For this purpose, microsomes isolated from bovine RPE cells were preincubated with 10-50 μM of abn-CBD (1:1 to 1:5 molar excess of cannabinoid) prior to the initiation of the esterification, isomerization, or oxidation reactions by addition of an adequate retinoid substrate.

C=C(C)[C@@H]1CCC(C)=C[C@H]1c1c(O)cc(O)cc1CCCCC [abn-CBD, 4-[(1R,6R)-3-Methyl-6-prop-1-en-2-ylcyclohex-2-en-1-yl]-5-pentylbenzene-1,3-diol]
binding to CRBP3 [1]: bind abn-CBD similarly to CRBP1
effect on enzymatic activity of RDH5 [2]: did not cause a measurable decline
